Measurements taken from the supplement of paper PMC8882468.
± gives the standard deviation of the averaged measurements.

Columns and labels:
Assay in all cases: CTG-3D luminescence at 96 h relative to day-0 seeding control (ratio to day 0); higher = more growth / less cytotoxicity; PDxO 3D drug screen, 96 h, CTG-3D normalised to day-0 seeding control.
HCI-008 = test system: HCI-008 (organoid from a HER2-enriched breast cancer xenograft)
HCI-010 = test system: HCI-010 (organoid from a breast cancer xenograft)
HCI-011.E2 = test system: HCI-011.E2 (organoid from an ER-positive breast cancer xenograft)
HCI-023 = test system: HCI-023 (organoid from a triple-negative breast cancer xenograft)
HCI-025 = test system: HCI-025 (organoid from a breast cancer xenograft)
HCI-027 = test system: HCI-027 (organoid from a triple-negative breast cancer xenograft)

NC(=O)Nc1cc(-c2cccc(F)c2)sc1C(=O)N[C@H]1CCCNC1 [AZD7762]
CTG-3D luminescence at 96 h
Settings | 12.5 pM | 0.00025 µM | 0.005 µM | 0.1 µM | 1 µM | 10 µM | 100 µM | 625 fM
HCI-008, days in culture: 228 | 1.63 ± 0.096 | 1.9 ± 0.19 | 1.65 ± 0.16 | 1.14 ± 0.068 | 0.449 ± 0.23 | 0.196 ± 0.24 | -0.128 ± 0.18 | 1.86 ± 0.35
HCI-008, days in culture: 244 | 1.39 | 1.87 | 2.45 | 1.66 | 0.881 | 0.413 | 0.00425 | 2.38
HCI-010, days in culture: 52 | 2.15 | 2.42 | 2.03 | 0.844 | 0.355 | 0.327 | -0.0157 | 2.28
HCI-010, days in culture: 65 | 1.69 | 1.62 | 1.42 | 0.742 | 0.378 | 0.219 | 0.00203 | 1.65
HCI-010, days in culture: 103 | 3.16 | 3.35 | 3.16 | 1.23 | 0.651 | 0.537 | 0.0021 | 3.22
HCI-011.E2, days in culture: 74 | 2.04 | 2.16 | 1.88 | 1.68 | 1.62 | 1.33 | 0.00724 | 1.92
HCI-023, days in culture: 111 | 1.36 | 1.49 | 1.15 | 0.765 | 0.201 | 0.0705 | -9.95e-05 | 1.52
HCI-023, days in culture: 128 | 1.552 ± 0.0041 | 1.6 ± 0.15 | 1.32 ± 0.11 | 0.581 ± 0.098 | 0.161 ± 0.022 | 0.133 ± 0.025 | 0.000895 ± 0.00032 | 1.67 ± 0.069
HCI-025, days in culture: 172 | 3.17 | 1.83 | 2.73 | 0.677 | 0.305 | 0.0747 | -0.00404 | 2.61
HCI-025, days in culture: 209 | 1.54 | 2.2 | 1.92 | 0.713 | 0.29 | 0.0922 | -0.00311 | 1.39
HCI-025, days in culture: 218 | 1.78 | 1.97 | 2.04 | 1.33 | 0.198 | 0.105 | -0.00375 | 1.77
HCI-027, days in culture: 176 | 1.95 | 1.34 | 2.55 | 0.208 | 0.0981 | 0.0356 | -0.00164 | 2.05
HCI-027, days in culture: 194 | 1.41 | 1.22 | 1.34 | 0.159 | 0.0911 | 0.0685 | -0.00154 | 1.61
HCI-027, days in culture: 201 | 1.43 | 2.16 | 2.35 | 0.166 | 0.0767 | 0.078 | -1.51e-05 | 1.6

HCI-011.E2
Settings | CTG-3D luminescence at 96 h
12.5 pM | 1.57 ± 0.43
0.00025 µM | 1.86 ± 0.45
0.005 µM | 1.56 ± 0.56
0.1 µM | 1.77 ± 0.42
1 µM | 1.66 ± 0.88
10 µM | 1.32 ± 0.15
100 µM | 0.00993 ± 0.0024
625 fM | 1.71 ± 0.31

O=C(/C=C/c1cccnc1)NCCCCC1CCN(C(=O)c2ccccc2)CC1 [FK866]
CTG-3D luminescence at 96 h
Settings | 12.5 pM | 0.00025 µM | 0.005 µM | 0.1 µM | 1 µM | 10 µM | 100 µM | 625 fM
HCI-008, days in culture: 228 | 1.646 ± 0.0026 | 1.91 ± 0.069 | 0.904 ± 0.53 | 0.206 ± 0.072 | 0.125 ± 0.022 | 0.168 ± 0.049 | 0.162 ± 0.077 | 1.38 ± 0.11
HCI-008, days in culture: 244 | 1.37 | 1.87 | 1.86 | 0.263 | 0.186 | 0.197 | 0.173 | 1.82
HCI-010, days in culture: 52 | 2.32 | 2.72 | 1.25 | 0.204 | 0.17 | 0.139 | 0.119 | 2.36
HCI-010, days in culture: 65 | 1.59 | 1.73 | 0.682 | 0.29 | 0.227 | 0.202 | 0.166 | 1.66
HCI-010, days in culture: 103 | 3.4 | 3.45 | 2.07 | 0.97 | 0.904 | 0.705 | 0.347 | 3.29
HCI-011.E2, days in culture: 74 | 2.62 | 2.62 | 2.29 | 1.99 | 2.77 | 2.79 | 2.06 | 2.32
HCI-023, days in culture: 111 | 1.12 | 1.65 | 0.244 | 0.0924 | 0.0716 | 0.0618 | 0.0864 | 1.25
HCI-023, days in culture: 128 | 1.73 ± 0.35 | 1.55 ± 0.36 | 0.315 ± 0.02 | 0.153 ± 0.032 | 0.103 ± 0.018 | 0.135 ± 0.015 | 0.123 ± 0.029 | 1.8 ± 0.19
HCI-025, days in culture: 172 | 3.12 | 0.0766 | 0.075 | 0.0447 | 0.0404 | 0.0184 | -0.00051 | 2.06
HCI-025, days in culture: 209 | 2.08 | 1.82 | 0.314 | 0.0825 | 0.0624 | 0.0413 | 0.0255 | 2.16
HCI-025, days in culture: 218 | 1.78 | 2.01 | 0.0772 | 0.031 | 0.013 | 0.00874 | 0.00784 | 1.85
HCI-027, days in culture: 176 | 1.98 | 1.8 | 0.365 | 0.104 | 0.104 | 0.0553 | 0.082 | 2.22
HCI-027, days in culture: 194 | 1.77 | 1.47 | 0.26 | 0.049 | 0.0511 | 0.0527 | 0.0718 | 1.63
HCI-027, days in culture: 201 | 1.55 | 1.66 | 0.166 | 0.0645 | 0.0296 | 0.0561 | 0.0649 | 1.74

HCI-011.E2
Settings | CTG-3D luminescence at 96 h
12.5 pM | 1.74 ± 0.37
0.00025 µM | 1.7 ± 0.019
0.005 µM | 1.37 ± 0.047
0.1 µM | 1.62 ± 0.38
1 µM | 1.48 ± 0.58
10 µM | 1.75 ± 0.66
100 µM | 1.55 ± 0.32
625 fM | 1.87 ± 0.63

CCc1c2c(nc3ccc(O)cc13)-c1cc3c(c(=O)n1C2)COC(=O)[C@]3(O)CC [SN-38]
CTG-3D luminescence at 96 h
Settings | 12.5 pM | 0.00025 µM | 0.005 µM | 0.1 µM | 1 µM | 10 µM | 100 µM | 625 fM
HCI-008, days in culture: 228 | 1.72 ± 0.38 | 1.6 ± 0.048 | 0.948 ± 0.27 | 0.349 ± 0.04 | 0.21 ± 0.049 | 0.132 ± 0.11 | 0.111 ± 0.082 | 1.93 ± 0.54
HCI-008, days in culture: 244 | 1.28 | 1.83 | 1.31 | 0.575 | 0.202 | 0.12 | 0.119 | 2.23
HCI-010, days in culture: 52 | 2.37 | 2.36 | 0.389 | 0.0916 | 0.0768 | 0.267 | 0.243 | 2.19
HCI-010, days in culture: 65 | 1.69 | 1.69 | 0.379 | 0.115 | 0.0812 | 0.317 | 0.334 | 0.54
HCI-010, days in culture: 103 | 3.57 | 3.27 | 0.516 | 0.116 | 0.145 | 0.599 | 0.576 | 2.96
HCI-011.E2, days in culture: 74 | 2.34 | 1.84 | 2.09 | 1.85 | 1.06 | 0.399 | 0.23 | 2.21
HCI-023, days in culture: 111 | 1.39 | 1.19 | 0.797 | 0.194 | 0.0332 | 0.0191 | 0.0103 | 1.53
HCI-023, days in culture: 128 | 2.09 ± 0.093 | 1.68 ± 0.05 | 0.754 ± 0.081 | 0.391 ± 0.076 | 0.0587 ± 0.004 | 0.0307 ± 0.00066 | 0.0252 ± 0.00077 | 1.9 ± 0.4
HCI-025, days in culture: 172 | 3.42 | 1.7 | 2.12 | 0.486 | 0.295 | 0.0768 | 0.0418 | 2.35
HCI-025, days in culture: 209 | 1.97 | 2.36 | 1.12 | 0.295 | 0.181 | 0.0722 | 0.0384 | 1.53
HCI-025, days in culture: 218 | 1.5 | 1.73 | 0.75 | 0.244 | 0.0898 | 0.0616 | 0.0407 | 1.53
HCI-027, days in culture: 176 | 1.94 | 1.79 | 1.19 | 0.371 | 0.104 | 0.0345 | 0.0407 | 1.74
HCI-027, days in culture: 194 | 1.81 | 1.39 | 0.614 | 0.307 | 0.0805 | 0.0428 | 0.0357 | 1.66
HCI-027, days in culture: 201 | 2.6 | 2.5 | 0.717 | 0.272 | 0.0912 | 0.0373 | 0.029 | 2.46

HCI-011.E2
Settings | CTG-3D luminescence at 96 h
12.5 pM | 1.25 ± 0.19
0.00025 µM | 1.54 ± 0.31
0.005 µM | 1.4 ± 0.3
0.1 µM | 1.48 ± 0.27
1 µM | 0.834 ± 0.32
10 µM | 0.362 ± 0.068
100 µM | 0.218 ± 0.021
625 fM | 1.46 ± 0.42
